Literature values, collected in patent publication US10487297B2, “Environmentally preferred antimicrobial compositions” (CHEMLINK LABORATORIES, LLC, priority 2013, dated 2019).

## CC(=O)N(CCN(C(C)=O)C(C)=O)C(C)=O [TAED, N,N,N′N′-tetraacetylethylenediamine]
  pKa: 8
